Drawing on PubChem BioAssay (NCI), this text covers TGI for 9 compounds.

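How tested: cells in 96-well plates exposed to compound for 48 hours at five concentrations. TGI: concentration producing complete growth inhibition.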

Among the test systems are ACHN renal; CAKI-1 renal; HL-60(TB) leukemia; K-562 leukemia; NCI-H23 lung; OVCAR-3 ovarian; OVCAR-5 ovarian; OVCAR-8 ovarian; RXF 393 renal; SF-268 CNS; SF-295 CNS; SK-MEL-28 melanoma; SK-MEL-5 melanoma; SK-OV-3 ovarian; SNB-19 CNS; SNB-75 CNS; TK-10 renal; DU-145 prostate.
Common to all, as to assay: NCI tumour cell line growth inhibition, 48 h

For `Cc1cc(C)n2c(-c3ccccc3)c(C)cc2n1`, the TGI in the experiment on ACHN renal is above 100 µM; in the experiment on CAKI-1 renal it was above 100 µM; in the experiment with HL-60(TB) leukemia, 50.4 µM; in the experiment with K-562 leukemia, above 100 µM; in the experiment on NCI-H23 lung it was above 100 µM; with OVCAR-3 ovarian, 83.3 µM. For the same compound, the TGI in the experiment with OVCAR-5 ovarian, in the experiment with OVCAR-8 ovarian, in the experiment on RXF 393 renal, in the experiment on SF-268 CNS, in the experiment on SF-295 CNS and in the experiment on SK-MEL-28 melanoma was above 100 µM each time. Further, the TGI in the experiment with SK-MEL-5 melanoma is above 100 µM; with SK-OV-3 ovarian it was above 100 µM; with SNB-19 CNS, above 100 µM; in the experiment on SNB-75 CNS it was 59.8 µM; in the experiment with TK-10 renal, above 100 µM.

Regarding `COc1ccc(N2C(=O)c3c(c4[nH]c5ccc(OC)cc5c4c4ccc(C(C)(C)C)cc34)C2=O)cc1`, the TGI in the experiment on ACHN renal, in the experiment on HL-60(TB) leukemia, in the experiment on K-562 leukemia, in the experiment on NCI-H23 lung, in the experiment with OVCAR-3 ovarian and in the experiment on OVCAR-5 ovarian was above 100 µM each time. For the same compound, the TGI in the experiment with OVCAR-8 ovarian, in the experiment with SF-268 CNS, with SF-295 CNS, with SK-MEL-28 melanoma, with SK-MEL-5 melanoma and with SK-OV-3 ovarian was above 100 µM each time. The TGI in the experiment with SNB-19 CNS, with SNB-75 CNS and in the experiment with TK-10 renal was above 100 µM each time.

Consider `C[C@H](NC(=O)n1c2ccccc2c2ccccc21)C(=O)O`, for which the TGI in the experiment on ACHN renal, in the experiment on CAKI-1 renal, with HL-60(TB) leukemia, in the experiment on K-562 leukemia, in the experiment with NCI-H23 lung and in the experiment on OVCAR-3 ovarian was above 100 µM in each case. In addition, the TGI in the experiment on OVCAR-5 ovarian, with OVCAR-8 ovarian, in the experiment with RXF 393 renal, in the experiment on SF-268 CNS, in the experiment on SF-295 CNS and with SK-MEL-28 melanoma was above 100 µM each time. Moreover, the TGI with SK-MEL-5 melanoma, with SK-OV-3 ovarian, with SNB-19 CNS and with TK-10 renal was above 100 µM in each case.

`Cc1ccc2c(c1)C1C(CO2)C(c2ccccc2)=NN1c1ccccc1` (configuration not stated): the TGI in the experiment with ACHN renal, in the experiment on HL-60(TB) leukemia, in the experiment on K-562 leukemia, in the experiment on NCI-H23 lung, in the experiment with OVCAR-3 ovarian and with OVCAR-5 ovarian was above 100 µM each time. The TGI with OVCAR-8 ovarian, with RXF 393 renal, in the experiment on SF-268 CNS, with SF-295 CNS, in the experiment on SK-MEL-28 melanoma and with SK-OV-3 ovarian was above 100 µM each time. Also, the TGI in the experiment on SNB-19 CNS, in the experiment with SNB-75 CNS and in the experiment with TK-10 renal was above 100 µM each time.

As to `COC(=O)C1=CC2CC1C(S(=O)(=O)c1ccccc1)C2S(=O)(=O)c1ccccc1` (configuration not stated), the TGI in the experiment on CAKI-1 renal is 20.8 µM; with HL-60(TB) leukemia, 7.29 µM; in the experiment on K-562 leukemia, 32.3 µM; in the experiment on NCI-H23 lung, 36.8 µM; in the experiment with OVCAR-3 ovarian, 21.2 µM; in the experiment with OVCAR-5 ovarian, 28.3 µM. Also, the TGI in the experiment on OVCAR-8 ovarian is 38.5 µM; with SF-268 CNS it was 53.5 µM; in the experiment with SF-295 CNS, 53.8 µM; in the experiment on SK-MEL-28 melanoma it was 30.4 µM; in the experiment on SK-MEL-5 melanoma, 33.2 µM; in the experiment with SK-OV-3 ovarian, above 100 µM. The results for the TGI in the experiment with SNB-19 CNS and with TK-10 renal were above 100 µM and 24.7 µM, respectively.

Take `O=C(CC(C(=O)c1cccs1)c1cccs1)c1ccccc1Cl` (configuration not stated): the TGI with ACHN renal, in the experiment on CAKI-1 renal, with DU-145 prostate, with HL-60(TB) leukemia, with K-562 leukemia and with NCI-H23 lung was above 100 µM each time. For the same compound, the TGI with OVCAR-5 ovarian, in the experiment on OVCAR-8 ovarian, in the experiment with SF-268 CNS, in the experiment with SF-295 CNS, in the experiment on SK-MEL-28 melanoma and in the experiment with SK-MEL-5 melanoma was above 100 µM each time. The TGI in the experiment on SK-OV-3 ovarian, in the experiment with SNB-19 CNS, in the experiment on SNB-75 CNS and with TK-10 renal was above 100 µM throughout.

Take `C/C(=N\NS(=O)(=O)c1ccc(C)cc1)c1cc2ccccc2n1C`: the TGI in the experiment with ACHN renal, in the experiment with HL-60(TB) leukemia, with K-562 leukemia, in the experiment on NCI-H23 lung, with OVCAR-8 ovarian and in the experiment on SF-268 CNS was above 100 µM in each case. Besides, the TGI in the experiment with SF-295 CNS, with SK-MEL-5 melanoma, in the experiment with SNB-19 CNS and with SNB-75 CNS was above 100 µM in each case.

Take `CC(=O)OC1CC2(C)OC(Cc3ccccc32)O1` (configuration not stated): the TGI with ACHN renal, with HL-60(TB) leukemia, with K-562 leukemia, with NCI-H23 lung, in the experiment on OVCAR-3 ovarian and in the experiment with OVCAR-8 ovarian was above 100 µM each time. The TGI with RXF 393 renal, in the experiment with SF-268 CNS, in the experiment on SF-295 CNS, in the experiment on SK-MEL-28 melanoma, in the experiment on SK-OV-3 ovarian and in the experiment on SNB-19 CNS was above 100 µM each time. The TGI in the experiment on SNB-75 CNS and with TK-10 renal was above 100 µM in each case.

`c1cnc2c(c1)-n1cccc1C1(CCSC1)NN2` (configuration not stated): the TGI in the experiment on ACHN renal, in the experiment with CAKI-1 renal, in the experiment on HL-60(TB) leukemia, with K-562 leukemia, in the experiment on NCI-H23 lung and in the experiment on OVCAR-3 ovarian was above 100 µM throughout. The TGI in the experiment with OVCAR-5 ovarian, in the experiment with OVCAR-8 ovarian, in the experiment on SF-268 CNS, in the experiment on SF-295 CNS, in the experiment with SK-MEL-28 melanoma and in the experiment on SK-MEL-5 melanoma was above 100 µM in each case. In addition, the TGI in the experiment with SNB-19 CNS, with SNB-75 CNS and in the experiment with TK-10 renal was above 100 µM throughout.
